Results on 5 molecules are retold here after patent US20110112195A1 (priority 2004, published 2011).

What is called IC50 is the concentration that inhibits the measured activity by half.

One series has as its system Adenovirus. The class given is cell-based.
The subject of a further series is West Nile Virus. The class given is cell-based.
The nature of another series: in vitro. The note with it: African green monkey.
In series [1] the test system is vaccinia virus (WR). The class given is cell-based.
Series [2] relates to vaccinia virus (WR). The class given is cell-based. This is another data set of the same source.
The test system of a further series is Ebola. The class given is cell-based.
Series [3] has as its system SARS-CoV. Put plainly: microbe, parasite or virus in culture. The class given is cell-based.
The test system of series [4] is adenovirus type 5 expressing EGFP. The class given is cell-based.
For series [5], the target named is H1L phosphatase (GST-H1L fusion protein) (Vaccinia virus, UniProt P07239). Put plainly: biochemical.
The subject of series [6] is SARS-CoV. The class given is cell-based.
For series [7], the system named is SARS-CoV. The note with it: cited from earlier work.

Converted amounts (≈) assume the structure as drawn. Read-outs that look alike come from different tables or passages of the source.

For `O=C(O)C1=CC(=C(c2ccc(O)c(C(=O)O)c2)c2ccc(O)c(C(=O)O)c2)C=CC1=O` [ATA, aurintricarboxylic acid], the “effect on Adenovirus” value in the series with Adenovirus was “no effect”. Further, the “inhibition of West Nile Virus” value with West Nile Virus is reported as 10000 fold. For the same molecule, the CC50 in “in vitro” was determined as 37.5 mg/mL (≈ 88.8 mM). In addition, in the series with vaccinia virus (WR) [1], the “lowest drug concentration at which block in vaccinia replication was evident” value is 25 µg/mL. Besides, in the series on vaccinia virus (WR) [2], the “plaque count (peak viral load)” value stood at 616 pfu/mL and the “viral count in treated sample as share of untreated control” value is 0.00026%. Besides, the “effect on Ebola” value with Ebola is “no effect”. Also, in the series with SARS-CoV [3], the “inhibition of virus replication compared to untreated controls” value is not above 1000 fold and the “viral replication level lower than control” value was found to be 10 times. In the series with SARS-CoV [3] (Severe acute respiratory syndrome coronavirus, Vero), the EC50 came to 0.2 mg/mL (≈ 0.474 mM). Besides, the “toxicity associated with treatment” value with Vero cells is “little toxicity”. In series [4], the “inhibition of EGFP expression by adenovirus” value is recorded as “No significant inhibition”. Also, in [5], 16 µM corresponded to half-maximal inhibition (IC50). For the same molecule, in the series with SARS-CoV [6], the “inhibition of virus RNA replication” value is listed as “more than 1,000 fold”, the “potency of ATA relative to interferon α as anti-SARS-CoV agent” value is “about 10 times” and the “potency of ATA relative to interferon β as anti-SARS-CoV agent” value was approximately 100 times.

For `CC1(C)[C@@H](O[C@H]2O[C@H](C(=O)O)[C@@H](O)[C@H](O)[C@H]2O[C@@H]2O[C@H](C(=O)O)[C@@H](O)[C@H](O)[C@H]2O)CC[C@]2(C)[C@H]3C(=O)C=C4[C@@H]5C[C@@](C)(C(=O)O)CC[C@]5(C)CC[C@@]4(C)[C@]3(C)CC[C@@H]12` [glycyrrhizin], the “inhibition effect on SARS-CoV replication (logs)” value with SARS-CoV [7] was “two logs or less”.

On to `Cc1c(O)cccc1C(=O)N[C@@H](CSc1ccccc1)[C@H](O)CN1C[C@H]2CCCC[C@H]2C[C@H]1C(=O)NC(C)(C)C` [nelfinavir], for which the “inhibition effect on SARS-CoV replication (logs)” value in the series with SARS-CoV [7] was “two logs or less”.

As for `NC(=O)c1ncn([C@@H]2O[C@H](CO)[C@@H](O)[C@H]2O)n1` [ribavarin], the “effect against SARS-CoV replication” value in the series with SARS-CoV [7] was “little effect”.

With IFNα, in the series on SARS-CoV [3], the EC50 was 500 IU/ml. Also, in the series on Vero cells, the CC50 came to 15000 IU/ml. In addition, in the series with SARS-CoV [6], the “inhibition effect with pre-treatment compared with samples without pre-treatment” value is “about the same” and the “inhibition of virus RNA replication” value came to 100 fold.
